Activity calls are given as the source filed them.
What was measured:
[1] = M. tuberculosis H37Rv growth inhibitors, H37Rv strain (AID 1626); type: functional
[2] = target: T1, Estrogen receptor beta (Homo sapiens, UniProt Q92731);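 note: recombinant ER-beta bound to coactivator SRC1 peptide in presence of estradiol agonist; inhibitors block coactivator peptide binding and lower the FRET signal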
[3] = target: T1, Estrogen receptor beta; assay: blockers of SRC-3 recruitment to ERβ – biochemical, ELISA, streptavidin-HRP readout, orthogonal assay, confirmation (AID 1060)
[4] = target: T2, Ubiquitin-conjugating enzyme E2 N (Homo sapiens, UniProt P61088); type: functional
T2 sequence (P61088 whole entry): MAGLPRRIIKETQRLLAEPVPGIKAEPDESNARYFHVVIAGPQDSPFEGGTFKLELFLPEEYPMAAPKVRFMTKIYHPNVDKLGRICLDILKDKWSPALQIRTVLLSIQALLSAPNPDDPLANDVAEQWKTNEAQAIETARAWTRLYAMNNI

[5] = target: T2, Ubiquitin-conjugating enzyme E2 N; type: functional; remark: listed apart in the source
[6] = target: Nonstructural protein 1 (Influenza A virus, UniProt Q194T2); type: functional, Influenza A virus (A/California/07/2009(H1N1))
Nonstructural protein 1, sequence (Q194T2 whole entry): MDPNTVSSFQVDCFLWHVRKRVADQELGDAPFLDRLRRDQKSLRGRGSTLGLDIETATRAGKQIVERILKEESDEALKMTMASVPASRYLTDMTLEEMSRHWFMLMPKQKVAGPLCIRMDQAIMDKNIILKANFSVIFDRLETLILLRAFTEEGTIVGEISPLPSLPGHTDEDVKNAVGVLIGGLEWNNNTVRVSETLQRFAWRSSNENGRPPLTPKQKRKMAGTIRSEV

[7] = target: T3, Bcl-2-related protein A1 (Mus musculus, UniProt Q07440); type: functional;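 note: confirmatory dose–response counterscreen on Bfl-1, used to check hits from a UBC13 polyubiquitin inhibitor campaign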
T3 sequence (Q07440 whole entry): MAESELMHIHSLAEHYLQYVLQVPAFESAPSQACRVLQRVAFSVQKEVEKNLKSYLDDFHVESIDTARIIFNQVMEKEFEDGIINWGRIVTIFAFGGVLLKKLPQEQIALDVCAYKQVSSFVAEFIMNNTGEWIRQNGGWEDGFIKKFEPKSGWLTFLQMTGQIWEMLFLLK

[8] = target: T4, Estrogen receptor (Homo sapiens, UniProt P03372);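 note: potency for inhibiting coactivator peptide recruitment to the receptor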
T4 sequence (P03372 whole entry): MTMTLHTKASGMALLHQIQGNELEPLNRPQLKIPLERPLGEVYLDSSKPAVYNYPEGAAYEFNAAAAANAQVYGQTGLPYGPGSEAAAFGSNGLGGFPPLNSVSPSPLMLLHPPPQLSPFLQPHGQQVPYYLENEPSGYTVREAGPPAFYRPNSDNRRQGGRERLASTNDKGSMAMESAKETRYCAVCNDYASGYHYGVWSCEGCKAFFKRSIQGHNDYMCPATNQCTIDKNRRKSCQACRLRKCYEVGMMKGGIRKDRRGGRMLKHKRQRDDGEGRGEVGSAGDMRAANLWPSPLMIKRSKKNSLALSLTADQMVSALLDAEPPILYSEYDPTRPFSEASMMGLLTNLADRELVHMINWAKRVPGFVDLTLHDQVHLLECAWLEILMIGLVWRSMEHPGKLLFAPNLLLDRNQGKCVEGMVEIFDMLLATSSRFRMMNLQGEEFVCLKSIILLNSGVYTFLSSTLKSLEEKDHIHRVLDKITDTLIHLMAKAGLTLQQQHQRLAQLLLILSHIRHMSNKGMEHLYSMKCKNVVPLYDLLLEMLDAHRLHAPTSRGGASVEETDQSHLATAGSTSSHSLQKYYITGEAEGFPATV

[9] = target: T5, Alkaline phosphatase, tissue-nonspecific isozyme (Homo sapiens, UniProt P05186); assay: potency against alkaline phosphatase TNAP – biochemical, luminescent, dose response, SAR follow-up (AID 1056)
T5 sequence (P05186 whole entry): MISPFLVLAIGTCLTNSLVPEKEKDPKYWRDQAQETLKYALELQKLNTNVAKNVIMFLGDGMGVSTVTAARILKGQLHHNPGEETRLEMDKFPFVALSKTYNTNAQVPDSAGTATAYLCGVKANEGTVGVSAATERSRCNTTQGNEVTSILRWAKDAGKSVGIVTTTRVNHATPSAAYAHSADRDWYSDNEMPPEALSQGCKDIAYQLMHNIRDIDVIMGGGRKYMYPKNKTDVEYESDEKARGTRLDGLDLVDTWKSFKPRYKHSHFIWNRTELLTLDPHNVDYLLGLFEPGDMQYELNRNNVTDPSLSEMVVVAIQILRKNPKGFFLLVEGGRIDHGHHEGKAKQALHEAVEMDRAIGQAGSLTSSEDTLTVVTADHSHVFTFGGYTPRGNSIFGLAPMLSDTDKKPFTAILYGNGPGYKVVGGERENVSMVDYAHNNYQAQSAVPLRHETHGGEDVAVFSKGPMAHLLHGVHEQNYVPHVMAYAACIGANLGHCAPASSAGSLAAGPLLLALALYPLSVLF

[10] = target: Glyceraldehyde-3-phosphate dehydrogenase (Homo sapiens, UniProt P04406)
Glyceraldehyde-3-phosphate dehydrogenase, sequence (P04406 whole entry): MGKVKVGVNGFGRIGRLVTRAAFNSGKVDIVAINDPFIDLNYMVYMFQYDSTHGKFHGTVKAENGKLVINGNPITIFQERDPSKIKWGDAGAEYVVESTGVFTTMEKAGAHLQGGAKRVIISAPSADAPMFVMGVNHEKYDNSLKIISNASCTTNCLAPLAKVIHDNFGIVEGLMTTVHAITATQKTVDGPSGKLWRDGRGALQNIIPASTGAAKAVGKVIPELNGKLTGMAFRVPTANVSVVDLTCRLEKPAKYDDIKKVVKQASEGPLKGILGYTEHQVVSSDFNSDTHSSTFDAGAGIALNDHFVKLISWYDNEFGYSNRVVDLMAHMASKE

[11] = tested on: Streptococcus; assay: GAS UMAA2166 growth inhibition – luminescence, BacTiterGlo, counter-screen for streptokinase expression inhibitor project, dose response (AID 1915); type: functional, organism-based;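 note: potency for reduction of bacterial viability or growth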
[12] = target: T6, Short transient receptor potential channel 4 (Mus musculus, UniProt Q9QUQ5); assay: calcium entry via TRPC4 opening agents – cell-based, HEK293 TRPC4/mu-opioid, Fluo-4 calcium, dose response (AID 434937); type: functional
T6 sequence (Q9QUQ5 whole entry): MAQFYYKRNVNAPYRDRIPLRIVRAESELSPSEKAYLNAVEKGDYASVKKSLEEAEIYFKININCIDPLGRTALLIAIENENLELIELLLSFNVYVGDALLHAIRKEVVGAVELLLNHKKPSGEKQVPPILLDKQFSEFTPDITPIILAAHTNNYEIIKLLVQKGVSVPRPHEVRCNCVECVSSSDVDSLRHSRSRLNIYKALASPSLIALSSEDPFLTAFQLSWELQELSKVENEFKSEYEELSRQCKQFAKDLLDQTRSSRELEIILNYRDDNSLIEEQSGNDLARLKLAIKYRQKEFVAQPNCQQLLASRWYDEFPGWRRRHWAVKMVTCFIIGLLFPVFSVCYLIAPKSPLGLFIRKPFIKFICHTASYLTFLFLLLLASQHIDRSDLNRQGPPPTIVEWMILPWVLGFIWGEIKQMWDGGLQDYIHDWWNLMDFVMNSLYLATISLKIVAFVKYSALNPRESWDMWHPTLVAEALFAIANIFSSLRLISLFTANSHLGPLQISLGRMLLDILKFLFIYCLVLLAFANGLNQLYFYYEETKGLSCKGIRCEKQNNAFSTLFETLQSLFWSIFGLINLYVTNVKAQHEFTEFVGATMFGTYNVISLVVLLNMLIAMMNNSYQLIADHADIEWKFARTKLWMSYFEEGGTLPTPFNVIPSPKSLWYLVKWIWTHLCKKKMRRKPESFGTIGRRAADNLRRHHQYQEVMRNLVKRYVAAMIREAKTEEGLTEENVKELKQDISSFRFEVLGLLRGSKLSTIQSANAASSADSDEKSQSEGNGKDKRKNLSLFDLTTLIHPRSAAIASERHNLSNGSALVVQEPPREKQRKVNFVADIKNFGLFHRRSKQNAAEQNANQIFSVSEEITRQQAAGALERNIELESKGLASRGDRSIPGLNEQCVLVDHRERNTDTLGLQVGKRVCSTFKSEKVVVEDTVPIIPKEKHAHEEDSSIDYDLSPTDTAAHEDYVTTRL

[13] = tested on: Vero; assay: cells; type: functional; details: Chlorocebus sabaeus
[14] = tested on: Streptococcus sp. 'group A'; assay: Streptococcus pyogenes SK(-)GAS viability under kanamycin – luminescence, BacTiterGlo, confirmation, counter-screen for streptokinase expression inhibitor project, dose response (AID 1900); type: functional, organism-based
[15] = tested on: Vero; assay: cells; type: functional, cell-based; details: Chlorocebus sabaeus
[16] = tested on: H9c2; assay: cells; type: functional, cell-based; details: Rattus norvegicus, H9c2, Myocardium;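 note: confirmatory concentration-response retest of ultra-high-throughput screening hits for modulation of myocardial damage; cell death induced by hydrogen peroxide oxidative stress; compound pretreatment for 60 min then peroxide exposure for 2 h; potency is for protecting the cells against peroxide damage rather than for killing them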
[17] = target: Genome polyprotein (dengue virus type 2, UniProt P29990); assay: flavivirus cap methylation enzyme inhibition – biochemical, confirmation dose response, primary screen (AID 588689); type: functional
Genome polyprotein, sequence (P29990 2492-3391 limits assumed): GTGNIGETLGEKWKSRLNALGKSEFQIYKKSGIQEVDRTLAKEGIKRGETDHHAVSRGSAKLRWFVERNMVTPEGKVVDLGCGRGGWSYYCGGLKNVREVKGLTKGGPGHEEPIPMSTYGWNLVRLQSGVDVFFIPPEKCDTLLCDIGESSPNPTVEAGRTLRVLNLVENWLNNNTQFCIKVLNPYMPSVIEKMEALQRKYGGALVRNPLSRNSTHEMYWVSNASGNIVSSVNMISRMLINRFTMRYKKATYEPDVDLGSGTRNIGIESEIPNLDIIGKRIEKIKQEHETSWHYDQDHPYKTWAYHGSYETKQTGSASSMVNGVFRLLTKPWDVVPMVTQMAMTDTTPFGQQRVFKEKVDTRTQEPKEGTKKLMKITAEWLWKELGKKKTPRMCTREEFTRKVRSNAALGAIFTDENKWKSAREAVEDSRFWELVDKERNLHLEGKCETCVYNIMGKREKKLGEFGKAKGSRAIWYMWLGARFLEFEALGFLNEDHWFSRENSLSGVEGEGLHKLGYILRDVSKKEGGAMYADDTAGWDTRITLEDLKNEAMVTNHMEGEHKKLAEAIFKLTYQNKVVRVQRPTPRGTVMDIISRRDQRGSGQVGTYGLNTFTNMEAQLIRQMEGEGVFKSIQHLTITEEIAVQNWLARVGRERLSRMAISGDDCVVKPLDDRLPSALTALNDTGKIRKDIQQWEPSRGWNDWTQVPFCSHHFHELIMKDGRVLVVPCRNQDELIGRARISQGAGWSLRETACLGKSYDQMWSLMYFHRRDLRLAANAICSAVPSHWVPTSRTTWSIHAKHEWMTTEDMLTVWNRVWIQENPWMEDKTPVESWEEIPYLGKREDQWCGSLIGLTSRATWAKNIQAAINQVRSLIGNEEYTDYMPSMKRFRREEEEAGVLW

[18] = tested on: Vero; assay: viability of Vero cells under compound – cytotoxicity control for flavivirus capping enzyme inhibitors (AID 588742); type: functional; details: Chlorocebus sabaeus
[19] = viability loss in THP-1 monocytes – THP-1 cells, cytotoxicity control for Vif-APOBEC3G degradation inhibitor project, dose response (AID 1117359); type: functional; details: THP-1
[20] = cells; type: functional, cell-based
[21] = alpha-synuclein stem-loop luciferase translation blockers – H4 neuroglioma cells, luminescence, confirmation (AID 1988); type: functional, cell-based
[22] = fluconazole-exposed Candida albicans growth modulators – fluorescence, retest, confirmation (AID 2467); type: functional, cell-based
[23] = luciferase reporter signal suppression in cells – H4 neuroglioma cells, luminescence, dose response (AID 1990); type: functional, cell-based
[24] = Luminescence Cell-Based Dose Response HTS to Identify Inhibitors of 5'UTR Stem-Loop Driven Prion Protein mRNA Translation in H4 Neuroglioblastoma Cells. [Related pubchem assays: 1827 (Project Summary), 1813 (Primary HTS)]; type: functional
[25] = target: T7, Mannose-6-phosphate isomerase (Homo sapiens, UniProt P34949); assay: MPI inhibition at elevated mannose 6-phosphate – biochemical, fluorescence intensity, high mannose 6-phosphate, primary screen (AID 1220)
T7 sequence (P34949 whole entry): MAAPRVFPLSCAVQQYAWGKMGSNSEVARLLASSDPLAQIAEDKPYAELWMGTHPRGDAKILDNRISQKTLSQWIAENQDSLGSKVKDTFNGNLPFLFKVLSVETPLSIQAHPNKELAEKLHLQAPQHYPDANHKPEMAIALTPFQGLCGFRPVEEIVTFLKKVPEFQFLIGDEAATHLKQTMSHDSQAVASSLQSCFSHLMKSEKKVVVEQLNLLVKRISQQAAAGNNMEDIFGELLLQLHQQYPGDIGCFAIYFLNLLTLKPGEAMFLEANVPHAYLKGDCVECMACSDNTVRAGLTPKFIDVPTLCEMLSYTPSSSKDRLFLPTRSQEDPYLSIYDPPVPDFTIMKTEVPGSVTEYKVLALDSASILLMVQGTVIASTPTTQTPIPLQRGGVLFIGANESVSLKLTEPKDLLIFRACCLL

[26] = NIH-3T3 fibroblast cytotoxicity, dose response, cytotoxicity control, cell-based, fluorescence, Alamar Blue, secondary assay (AID 2327); type: functional;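 note: NIH-3T3 mouse fibroblasts cultured with fluconazole at 8 µg/mL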
[27] = target: Induced myeloid leukemia cell differentiation protein Mcl-1 (Homo sapiens, UniProt Q07820); type: functional
Induced myeloid leukemia cell differentiation protein Mcl-1, sequence (Q07820 whole entry): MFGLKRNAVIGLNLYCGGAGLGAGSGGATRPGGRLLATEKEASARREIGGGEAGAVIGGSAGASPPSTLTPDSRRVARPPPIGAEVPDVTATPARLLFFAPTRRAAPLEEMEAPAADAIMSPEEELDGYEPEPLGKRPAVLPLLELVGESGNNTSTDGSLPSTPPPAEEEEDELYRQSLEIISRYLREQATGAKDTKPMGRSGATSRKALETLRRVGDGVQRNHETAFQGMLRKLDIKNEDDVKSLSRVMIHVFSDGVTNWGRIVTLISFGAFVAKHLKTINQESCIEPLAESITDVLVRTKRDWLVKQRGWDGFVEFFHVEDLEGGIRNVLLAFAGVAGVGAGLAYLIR

[28] = cells; type: functional, cell-based; remark: listed apart in the source

T1 sequence (Q92731 whole entry): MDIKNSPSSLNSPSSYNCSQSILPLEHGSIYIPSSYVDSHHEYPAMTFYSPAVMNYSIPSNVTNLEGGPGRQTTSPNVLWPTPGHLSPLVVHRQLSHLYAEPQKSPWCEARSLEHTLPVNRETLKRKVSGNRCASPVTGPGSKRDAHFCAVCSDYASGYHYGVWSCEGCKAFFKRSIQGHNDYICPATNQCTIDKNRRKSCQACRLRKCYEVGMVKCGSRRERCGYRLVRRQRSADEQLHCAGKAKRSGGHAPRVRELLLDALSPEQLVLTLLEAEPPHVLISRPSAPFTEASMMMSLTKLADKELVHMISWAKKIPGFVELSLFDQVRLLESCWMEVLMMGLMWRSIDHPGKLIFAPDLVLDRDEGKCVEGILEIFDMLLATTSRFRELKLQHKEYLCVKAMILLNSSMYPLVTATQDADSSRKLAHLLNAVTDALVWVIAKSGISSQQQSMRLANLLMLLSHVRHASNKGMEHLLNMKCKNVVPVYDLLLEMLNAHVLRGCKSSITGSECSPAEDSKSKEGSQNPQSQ

## Cc1ccc(NC(=O)C2CCCCC2C(=O)O)cc1Cl (stereo not given)
[1]
  IC50: > 100 µM (active)

## O=C(/C=C/Nc1ccc(Oc2ccccc2Cl)cc1)c1ccco1
[1]
  IC50: > 100 µM (active)

## O=C(Cn1nnc(-c2ccc3c(c2)OCO3)n1)NCc1ccco1
[2]
  IC50: 19.6 µM (active)
[3]
  IC50: 3 µM (not active)

## Oc1cc(Nc2ccncc2)cc2cccnc12
[4]
  IC50: 8.54 µM (active)
[5]
  IC50: 6.9 µM (active)
[6]
  IC50: 5.11 µM (active)
[7]
  IC50: > 20 µM (inactive)

## COc1ccc(CCNC(=O)c2ccc(CN3CCC(Cc4ccccc4)CC3)cc2)cc1
[1]
  IC50: > 100 µM (active)

## O=C1c2cccc3cccc(c23)N1Cc1ccc(F)cc1
[4]
  IC50: 6.78 µM (active)
[5]
  IC50: 5.15 µM (active)
[7]
  IC50: > 20 µM (inactive)

## COc1cc(C2C(C#N)=C(N)Oc3cc(C)oc(=O)c32)cc2c1OCO2 (stereo not given)
[2]
  IC50: 13.6 µM (active)
[8]
  IC50: 26.2 µM (active)
[3]
  IC50: 9.24 µM (not active)

## COc1ccc(S(=O)(=O)n2cc(C(N)=O)c3ccccc32)cc1
[9]
  IC50: > 100 µM (inactive)
[10]
  IC50: > 100 µM (not active)

## COc1ccc(OCc2nn3c(-c4cccc(OC)c4)nnc3s2)cc1
[1]
  IC50: > 100 µM (active)

## Cn1c(C(=O)Nc2ccc3c(c2)OCO3)cc2c(=O)n(C)c3ccccc3c21
[2]
  IC50: > 50 µM (not active)
[8]
  IC50: 22.6 µM (active)
[3]
  IC50: 0.0468 µM (not active)

## CCCOc1ccc(C(=O)NC(=S)NNC(=O)c2c(-c3ccccc3)noc2C)cc1
[11]
  EC50: 0.596 µM (active)
[12]
  EC50: 2.66 µM (active)
[13]
  CC50: 12.1 µM (active)
[14]
  EC50: 0.137 µM (active)
[15]
  IC50: > 25 µM (active)

## CN(Cc1ccccc1)C(=O)COC(=O)c1cc(-c2ccc(Cl)s2)nc2ccccc12
[4]
  IC50: 11.8 µM (active)
[5]
  IC50: > 20 µM (inactive)
[7]
  IC50: > 20 µM (inactive)

## O=S(=O)(Nc1ccc2ncccc2c1)c1ccccc1OC(F)(F)F
[9]
  IC50: > 100 µM (inactive)
[10]
  IC50: > 100 µM (not active)

## COc1ccc(Cl)cc1C(=O)Nc1ccccc1N1CCN(C)CC1
[12]
  EC50: 5.96 µM (active)

## CCOC(=O)C1=C(COC(=O)c2cc(OC)c(OC)c(OC)c2)NC(=O)NC1C (stereo not given)
[4]
  IC50: 6.85 µM (active)
[5]
  IC50: 8.55 µM (active)
[16]
  IC50: 11.2 µM (active)
[7]
  IC50: > 20 µM (inactive)

## Cc1cc(SCC(=O)N/N=C/c2ccc(O)c(O)c2O)c(C)cc1Br
[17]
  IC50: 17.4 µM (active)
[18]
  CC50: > 40 µM (active)
[11]
  EC50: 6.34 µM (active)
[19]
  CC50: 2.57 µM (active)
[20]
  EC50: 11.6 µM (active)
[21]
  EC50: 26.7 µM (active)
[22]
  EC50: 1.45 µM (active)
[14]
  EC50: 3.27 µM (active)
[23]
  EC50: 11 µM (active)
[24]
  EC50: 13.9 µM (active)
[25]
  IC50: > 50 µM (not active)
[26]
  EC50: > 150 µM (inconclusive)
[27]
  IC50: 5.65 µM (active)
[28]
  EC50: > 350 µM (not active)

Source: ChEMBL document CHEMBL1201862, “PubChem BioAssay data set” (2004)
